{
  "source": "patent US20250057864A1",
  "about": "“COMPOSITION FOR IMPROVING EXERCISE PERFORMANCE COMPRISING GYPENOSIDE COMPOUND AS ACTIVE INGREDIENT” (BTC CORPORATION, priority 2022, published 2025)",
  "key": {"[1]": {"test_system": "GSY, SIRT1, PPARγ in C2C12 cells", "assay": "mRNA expression of genes related with energy in C2C12 cells", "assay_type": "cell-based, mice", "conditions": "C2C12, 0.36 μg/mL (Cr 5 μg/mL), control G1 = 1.00", "experimental": "C2C12 cells were dispensed into a 6-well plate at 2×10^5 cells/well and stabilized for 24 hours. In order to investigate the effect of each test substance on muscle cell differentiation, each test substance was added to the myocyte differentiation medium. The cells were cultured for 4 days (mRNA analysis) or 7 days (protein analysis) after exchanging the cell culture medium with the myocyte differentiation medium treated with each test substance, as shown in Table 2.\nC2C12 cells were dispensed into a 6-well plate at 2×10^5 cells/well and stabilized for 24 hours. The cells were cultured for 2 or 4 days after replacing the cell culture with a myocyte differentiation medium containing the test substance. After collecting the cells, total RNA was isolated using an RNeasy Plus Mini kit (QIAGEN), and quantified using a micro-volume spectrophotometer (BioSpec-nano, Shimadzu). RNAs with an OD260/280 value greater than 1.8 were used for experiment.\nAfter obtaining cDNA from the total RNA (2 μg) using a HyperScript™ RT master mix kit (GeneAll Biotechnology), real-time PCR was performed using a Rotor-Gene 300 PCR kit (Corbett Research) and a Rotor-Gene™ SYBR Green kit (QIAGEN). Quantitative analysis of the gene expression was performed using the Rotor-Gene 6000 Series System Software program (Corbett Research).\nThe result of investigating the effect of the compositions according to Examples 1 to 4 on the mRNA expression of GSY, SIRT1 and PPARγ involved in the energy metabolism of muscle cells is shown in Table 11."}, "ICR mice [2]": {"test_system": "ICR mice", "assay": "Treadmill test: exercise time and exercise capacity until exhaustion", "assay_type": "in vivo", "conditions": "6 weeks", "experimental": "After an acclimatization period of 1 week, healthy animals were selected and divided into 6 groups according to the randomized block design. The animals were divided into (G1) a non-exercise control group, (G2) a non-exercise+7 mg/kg body weight (BW) Example 1 group, (G3) a non-exercise+7 mg/kg BW Example 2 group, (G4) a non-exercise+7 mg/kg BW Example 3 group, (G5) a non-exercise+7 mg/kg BW Example 4 group, (G6) an exercise control group, (G7) an exercise+7 mg/kg BW Example 1 group, (G8) an exercise+7 mg/kg BW Example 2 group, (G9) an exercise+7 mg/kg BW Example 3 group, (G10) an exercise+7 mg/kg BW Example 4 group, and (G11) an exercise+75 mg/kg BW Cr dose group. Each test group consisted of 10 animals.\nThe test substance was dissolved in drinking water and administered every day at regular times (2 hours before exercise) for 6 weeks. Throughout the test period, the experimental animals were given free access to solid feed for experimental animals (Cargill Agri Puna) and drinking water.\nThe endurance exercise of the animals was conducted for 6 weeks using a treadmill for small animals (Exer3/6 Treadmill, Columbus Instruments). The endurance exercise was conducted with 10 degrees of slope at 10 m/min, starting from for 15 minutes in the first week, for 20 minutes in the second week, for 25 minutes in the third week, for 30 minutes in the fourth week, for 35 minutes in the fifth week, and for 40 minutes in the sixth week.\nAfter 6 weeks of the exercise training, in order to evaluate endurance exercise performance, exercise was started with 10 degrees of slope at 10 m/min for 5 minutes, and the intensity of the exercise was increased by 1 m/min every 1 minute up to the highest speed of 25 m/min. The duration of the exercise until exhaustion was measured. The experimental animal was judged to be exhausted if it was unable to run for 10 seconds or longer at the back of the treadmill. The exercise capacity of the experimental animal was calculated as follows.\nIn order to evaluate the performance of the effect of the test substances on endurance exercise performance, exercise was started with 10 degrees of slope at 10 m/min for 5 minutes, and the intensity of the exercise was increased by 1 m/min every 1 minute up to the highest speed of 25 m/min."}, "C2C12 cells": {"test_system": "C2C12 cells", "assay": "Intracellular ROS production in C2C12 cells (DCF-DA)", "assay_type": "cell-based, mice", "conditions": "oxidative stress by 50 μM TBHP, 1 h pretreatment with test substance", "experimental": "C2C12 cells were dispensed into a 96-well plate at 1×10^4 cells/well and stabilized for 24 hours. Subsequently, the cells were cultured for 1 hour after exchanging with the culture medium with the myocyte differentiation medium containing each test substance. After 1 hour, the cells were washed with PBS and cultured further for 3 hours with a culture medium containing 50 μM tert-butyl hydrogen peroxide (TBHP), and the ROS level in the cells was measured using a DCF-DA assay kit (Abcam) according to the manufacturer's method.\nIn order to investigate the effect of each of the compositions according to Examples 1 to 4 on ROS production in C2C12 cells, ROS production was measured using 2′,7′-dichlorofluorescin diacetate (DCF-DA). DCF-DA was measured using the principle that it is oxidized by ROS in cells and is converted to DCF, which emits fluorescence."}, "ICR mice [3]": {"test_system": "ICR mice", "assay": "Weight-loaded forced swimming test, time to exhaustion", "assay_type": "in vivo", "conditions": "forced swimming with 5% BW load, day 14, oral 7 mg/kg BW", "experimental": "After an acclimatization period of 1 week, healthy animals were selected and divided into 6 groups of 10 mice per group according to the randomized block design. A normal control group was orally administered with 5% Tween 80-saline, and a composition was orally administered with Creatine monohydrate (Cr) at 75 mg/kg body weight (BW). Test groups (G2 to G5) were orally administered the compositions of Examples 1 to 4 dissolved in drinking water to 7 mg/kg body weight (BW) at regular times for 17 days. Throughout the test period, the experimental animals were given free access to solid feed for experimental animals (Cargill Agri Puna) and drinking water.\nWeight-loaded forced swimming test was performed for the experimental animals as follows. A plastic pool (90×45×45 cm) was filled with water at the depth of 35 cm and the temperature of the water was maintained at 25±1° C. After attaching a weight (5% of the body weight of the experimental animal) to the tail, the experimental animal was forced to swim in the pool.\nOn days 10 and 12 after the administration of the test substance, swimming adaptation exercise was given twice for 15 minutes each. Two days after the final swimming adaptation exercise (on day 14 after the administration of the test substance), forced swim test was performed after fasting the experimental animal for 16 hour, and the time until exhaustion was measured. […]"}, "[4]": {"conditions": "non-exercise, 7 mg/kg BW, treadmill test"}, "[5]": {"conditions": "treadmill exercise, 7 mg/kg BW (Cr 75 mg/kg BW)"}},
  "data": [
    {"compound": "CN(CC(=O)O)C(=N)N.O", "note": "[Cr, Creatine monohydrate, reference compound]", "values": [
      {"measurement": "mRNA expression PPARγ", "setting": "[1]", "value": "2.93 ± 1.32"},
      {"measurement": "mRNA expression Sirt1", "setting": "[1]", "value": "1.13 ± 0.18"}
    ]},
    {"compound": "CC(C)=CCC[C@](C)(O)C1CC[C@]2(C)C1[C@H](O)CC1[C@@]3(C)C[C@@H](O)C(OC4OC(CO)C(O)C(O)C4OC4OC(CO)C(O)C(O)C4O)C(C)(C)C3CC[C@]12C", "note": "(some centres unmarked) [Example 1, Gypenoside L]", "values": [
      {"measurement": "Exercise capacity", "setting": "ICR mice [2]; [4]", "value": "1,583 ± 91 g"},
      {"measurement": "Time until exhaustion (sec)", "setting": "ICR mice [2]; [4]", "value": "1,472 ± 66 sec"},
      {"measurement": "Exercise capacity", "setting": "ICR mice [2]; [5]", "value": "2,832 ± 119^+ g"},
      {"measurement": "Time until exhaustion (sec)", "setting": "ICR mice [2]; [5]", "value": "2,393 ± 93^+ sec"},
      {"measurement": "ROS production (fluorescence intensity)", "setting": "C2C12 cells", "value": "22.12 ± 0.70", "unit": "fluorescence intensity"},
      {"measurement": "mRNA expression GSY", "setting": "[1]", "value": "2.71 ± 0.32"},
      {"measurement": "mRNA expression PPARγ", "setting": "[1]", "value": "1.16 ± 0.47"},
      {"measurement": "mRNA expression Sirt1", "setting": "[1]", "value": "1.40 ± 0.22"},
      {"measurement": "Time to exhaustion", "setting": "ICR mice [3]", "value": "1193.4 ± 176.8", "unit": "s"}
    ]}
  ]
}
